# Test results taken from the supplement of paper PMC10307832.
# How the values were obtained:
# Assay in all cases: relative viability (nuclei count vs DMSO), 5 days (fraction); higher = more cells survive
# Dabrafenib + Bortezomib = compound: CC(C)(C)c1nc(-c2cccc(NS(=O)(=O)c3c(F)cccc3F)c2F)c(-c2ccnc(N)n2)s1 [Dabrafenib] + CC(C)C[C@H](NC(=O)[C@H](Cc1ccccc1)NC(=O)c1cnccn1)B(O)O [Bortezomib] (partner 0.002 µM)
# In short: (§1)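 Nuclei were stained with Hoechst during a one-step fixation (final 0.05% Triton X-100, 1% formaldehyde, 1 ug/ml Hoechst) carried out 5 days after dosing, then counted on 4× images. The cells, lung cancer lines in 1536-well plates, had been dosed by pin tool the day after seeding with one drug alone or a fixed anchor-drug dose plus five library-drug doses (not always all listed) in √10 steps. Relative viability is the nuclei count in treated wells divided by that in vehicle wells, and each value is the median of duplicate plates.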
# Dabrafenib + Decitabine = compound: CC(C)(C)c1nc(-c2cccc(NS(=O)(=O)c3c(F)cccc3F)c2F)c(-c2ccnc(N)n2)s1 [Dabrafenib] + Nc1ncn([C@H]2C[C@H](O)[C@@H](CO)O2)c(=O)n1 [Decitabine] (partner 2 µM)
# In short: as §1
# VX-702 + Luminespib = compound: NC(=O)c1ccc(N(C(N)=O)c2c(F)cccc2F)nc1-c1ccc(F)cc1F [VX-702] + CCNC(=O)c1noc(-c2cc(C(C)C)c(O)cc2O)c1-c1ccc(CN2CCOCC2)cc1 [Luminespib] (partner 0.01 µM)
# In short: as §1
# VX-702 + Dasatinib = compound: NC(=O)c1ccc(N(C(N)=O)c2c(F)cccc2F)nc1-c1ccc(F)cc1F [VX-702] + Cc1nc(Nc2ncc(C(=O)Nc3c(C)cccc3Cl)s2)cc(N2CCN(CCO)CC2)n1 [Dasatinib] (partner 0.075 µM)
# In short: as §1
Cell Line,relative viability (Dabrafenib + Bortezomib; first compound 0.003 µM),relative viability (Dabrafenib + Bortezomib; first compound 0.009487 µM),relative viability (Dabrafenib + Bortezomib; first compound 0.03 µM),relative viability (Dabrafenib + Bortezomib; first compound 0.09487 µM),relative viability (Dabrafenib + Bortezomib; first compound 0.3 µM),relative viability (Dabrafenib + Decitabine; first compound 0.003 µM),relative viability (Dabrafenib + Decitabine; first compound 0.009487 µM),relative viability (Dabrafenib + Decitabine; first compound 0.03 µM),relative viability (Dabrafenib + Decitabine; first compound 0.09487 µM),relative viability (Dabrafenib + Decitabine; first compound 0.3 µM),relative viability (VX-702 + Luminespib; first compound 0.02 µM),relative viability (VX-702 + Luminespib; first compound 0.2 µM),relative viability (VX-702 + Luminespib; first compound 0.6325 µM),relative viability (VX-702 + Luminespib; first compound 2 µM),relative viability (VX-702 + Dasatinib; first compound 0.02 µM),relative viability (VX-702 + Dasatinib; first compound 0.2 µM),relative viability (VX-702 + Dasatinib; first compound 0.6325 µM),relative viability (VX-702 + Dasatinib; first compound 2 µM)
LC-2-ad,1.04,1.03,0.969,0.918,1.09,0.749,0.753,0.776,0.771,0.689,0.979,1.01,1.01,1.36,0.724,0.581,0.619,0.901
NCI-H520,0.584,0.59,0.476,0.544,0.731,0.583,0.515,0.392,0.459,0.342,0.189,0.245,0.221,0.239,0.2,0.194,0.176,0.24
LOU-NH91,–,0.457,0.524,0.456,0.497,–,0.868,0.845,0.838,0.861,0.355,0.3,0.346,0.292,0.572,0.553,0.576,0.364
NCI-H1355,–,1.22,1.12,–,1.29,–,0.331,0.381,0.37,0.317,0.72,0.632,0.729,0.76,0.883,0.679,0.683,0.818
LCLC-97TM1,–,0.643,0.782,0.162,0.469,–,0.19,0.184,0.197,0.194,0.613,0.768,0.747,0.743,0.971,0.803,0.817,1.01
LCLC-103H,1.06,1.14,0.995,1.09,1.01,0.724,0.776,0.696,0.658,0.745,0.975,0.888,1,0.986,0.487,0.403,0.504,0.507
NCI-H1792,–,0.923,0.897,0.885,0.893,–,0.651,0.557,0.566,0.287,0.331,0.355,0.376,0.523,0.556,0.781,0.714,0.714
RERF-LC-KJ,1.02,1.33,1.05,1.05,1.13,0.792,0.724,0.655,0.731,0.705,1.19,1.2,1.12,1.67,0.837,0.781,0.87,0.901
ChaGo-K-1,–,0.816,1.01,0.983,1.11,0.456,0.508,0.552,0.522,0.402,0.657,0.46,0.586,0.678,0.769,0.584,0.622,0.614
LU99A,1.16,0.99,1.15,1.1,0.887,0.965,0.954,0.708,0.85,0.907,0.27,0.204,0.267,0.189,0.427,0.415,0.522,0.402
NCI-H322M,–,1.26,–,1.3,1.34,–,0.72,–,0.656,0.737,0.856,0.917,0.759,0.88,0.241,0.265,0.247,0.249
EMC-BAC-2,1.04,1.11,1.03,0.936,1.06,–,0.959,0.974,0.933,0.905,1.13,1.13,1.13,1.23,0.182,0.331,0.332,0.275
NCI-H2085,1.03,1.13,0.896,0.976,1.04,0.552,0.575,0.559,0.592,0.518,0.479,0.462,0.477,0.41,0.209,0.339,0.207,0.27
NCI-H441,–,0.453,0.393,0.323,0.35,–,0.253,0.279,0.247,0.203,0.368,0.326,0.271,0.411,0.633,0.565,0.627,0.697
NCI-H1975,0.333,0.432,0.374,0.49,0.429,0.373,0.413,0.355,0.4,0.312,0.198,0.275,0.233,0.246,0.365,0.344,0.402,0.382
COR-L23,1.06,1.15,0.91,0.898,0.915,0.475,0.47,0.41,0.432,0.279,0.749,0.719,0.688,0.761,0.523,0.475,0.559,0.673
NCI-H460,1.28,1.06,1.14,1.05,1.08,0.588,0.486,0.457,0.463,0.129,0.0333,0.0359,0.0358,0.0313,0.547,0.471,0.534,0.408

Cell Line,relative viability (Dabrafenib + Bortezomib; first compound 0.003 µM),relative viability (Dabrafenib + Bortezomib; first compound 0.009487 µM),relative viability (Dabrafenib + Bortezomib; first compound 0.03 µM),relative viability (Dabrafenib + Bortezomib; first compound 0.09487 µM),relative viability (Dabrafenib + Bortezomib; first compound 0.3 µM),relative viability (Dabrafenib + Decitabine; first compound 0.003 µM),relative viability (Dabrafenib + Decitabine; first compound 0.009487 µM),relative viability (Dabrafenib + Decitabine; first compound 0.03 µM),relative viability (Dabrafenib + Decitabine; first compound 0.09487 µM),relative viability (Dabrafenib + Decitabine; first compound 0.3 µM),relative viability (VX-702 + Luminespib; first compound 0.02 µM),relative viability (VX-702 + Luminespib; first compound 0.2 µM),relative viability (VX-702 + Luminespib; first compound 0.6325 µM),relative viability (VX-702 + Luminespib; first compound 2 µM),relative viability (VX-702 + Dasatinib; first compound 0.02 µM),relative viability (VX-702 + Dasatinib; first compound 0.2 µM),relative viability (VX-702 + Dasatinib; first compound 0.6325 µM),relative viability (VX-702 + Dasatinib; first compound 2 µM)
NCI-H838,0.74,0.973,0.417,0.715,1.09,0.436,0.466,0.497,0.428,0.335,0.332,0.333,0.273,0.299,0.348,0.285,0.304,0.339
NCI-H2087,0.814,0.752,0.564,0.648,0.761,–,0.305,0.352,0.278,0.213,0.162,0.141,0.169,0.138,0.953,0.856,0.959,0.967
NCI-H596,0.6,1,0.818,0.895,0.986,–,1.1,0.821,1.02,0.88,1.05,1.1,1.01,1.11,0.672,0.579,0.56,0.57
HCC-827,0.778,1.03,1.06,–,0.996,0.267,0.347,0.33,–,0.283,0.449,0.638,0.504,0.273,0.274,0.342,0.271,0.145
NCI-H1755,0.972,0.924,0.908,0.914,0.903,0.654,0.706,0.667,0.722,0.583,0.432,0.498,0.315,0.476,0.44,0.432,0.367,0.415
SK-LU-1,–,1.12,–,0.607,0.871,–,0.657,0.569,0.571,0.484,0.211,0.177,0.2,0.207,0.222,0.177,0.196,0.206
NCI-H2347,–,1.2,–,–,0.84,–,0.657,0.598,0.706,0.616,0.446,–,0.909,0.552,0.325,–,0.277,0.294
NCI-H2023,0.78,1.09,1.04,0.977,1.02,0.236,0.222,0.196,0.214,0.135,0.692,0.829,0.826,0.974,0.534,0.724,0.576,0.662
NCI-H2126,1.1,1.1,1.12,1.13,1.15,0.578,0.591,0.57,0.653,0.609,0.879,0.918,0.834,0.918,0.637,0.542,0.549,0.573
SW 1573,1.11,1.16,1.13,0.996,1.17,0.448,0.545,0.488,0.589,0.357,0.215,0.138,0.261,0.232,0.566,0.455,0.427,0.426
EPLC-272H,–,0.945,0.954,0.631,1.18,–,0.393,0.367,0.365,0.442,0.344,0.694,0.352,0.272,0.359,0.332,0.362,0.377
NCI-H1651,0.857,0.887,0.972,0.946,0.862,0.603,0.679,0.618,0.512,0.243,0.979,0.891,0.921,1.08,0.395,0.456,0.359,0.544
NCI-H23,–,0.95,0.861,0.643,1.07,–,0.343,0.352,0.333,0.32,0.196,0.189,0.274,0.215,0.834,0.896,1.02,0.674
NCI-H727,–,0.848,0.882,0.795,0.873,0.53,0.8,–,0.877,0.818,0.306,0.345,0.296,0.294,0.372,0.359,0.295,0.396
NCI-H1993,1.2,1.46,1.31,1.24,1.7,0.564,0.719,0.538,0.68,0.618,0.645,0.741,0.777,0.818,0.512,0.611,0.615,0.59
NCI-H2405,–,0.91,0.766,0.867,0.959,–,0.742,0.529,0.692,0.574,0.659,0.641,0.799,0.73,0.259,0.207,0.228,0.193
NCI-H661,0.647,0.868,0.437,0.719,0.789,0.656,0.57,0.575,0.573,0.514,0.905,0.919,0.995,1.06,0.841,0.811,0.995,1.06
